US10986838B2, “Herbicides” (SYNGENTA PARTICIPATIONS AG, priority 2016, dated 2021)

Assays:
Assay type in all cases: in vivo
[1] = test system: Alopecurus myosuroides (ALOMY); test: Pre-emergence herbicidal activity (B1); conditions: Test 1a, 1000 g/ha, evaluated after 13 days, 5=total damage to plant, 0=no damage to plant
Method: (§1) B1 Pre-Emergence Herbicidal Activity Seeds of a variety of test species were sown in standard soil in pots: Triticum aestivium (TRZAW), Avena fatua (AVEFA), Alopecurus myosuroides (ALOMY), Echinochloa crus-galli (ECHCG), Lolium perenne (LOLPE), Zea Mays (ZEAMX), Abutilon theophrasti (ABUTH), Amaranthus retroflexus (AMARE) and Setaria faberi (SETFA). After cultivation for one day (pre-emergence) under controlled conditions in a glasshouse (at 24/16° C., day/night; 14 hours light; 65% humidity), the plants were sprayed with an aqueous spray solution derived from the formulation of the technical active ingredient in acetone/water (50:50) solution containing 0.5% Tween 20 (polyoxyethelyene sorbitan monolaurate, CAS RN 9005-64-5). The test plants were then grown in a glasshouse under controlled conditions (at 24/16° C., day/night; 14 hours light; 65% humidity) and watered twice daily. After 13 days, the test was evaluated (5=total damage to plant; 0=no damage to plant). Tables B1a and B1b Control of Weed Species by Compound of Formula (I) after Pre-Emergence Application

[2] = test system: Avena fatua (AVEFA); test: Pre-emergence herbicidal activity (B1); conditions: Test 1a, 1000 g/ha, evaluated after 13 days, 5=total damage to plant, 0=no damage to plant
Method: as §1

[3] = test system: Echinochloa crus-galli (ECHCG); test: Pre-emergence herbicidal activity (B1); conditions: 1000 g/ha, evaluated after 13 days, 5=total damage to plant, 0=no damage to plant
Method: as §1

[4] = test system: Lolium perenne (LOLPE); test: Pre-emergence herbicidal activity (B1); conditions: 1000 g/ha, evaluated after 13 days, 5=total damage to plant, 0=no damage to plant
Method: as §1

[5] = test system: Setaria faberi (SETFA); test: Pre-emergence herbicidal activity (B1); conditions: 1000 g/ha, evaluated after 13 days, 5=total damage to plant, 0=no damage to plant
Method: as §1

[6] = test system: Triticum aestivium (TRZAW); test: Pre-emergence herbicidal activity (B1); conditions: Test 1a, 1000 g/ha, evaluated after 13 days, 5=total damage to plant, 0=no damage to plant
Method: as §1

[7] = test system: Alopecurus myosuroides (ALOMY); test: Post-emergence herbicidal activity (B2); conditions: Test B2a, 1000 g/ha, evaluated after 13 days, 5=total damage to plant, 0=no damage to plant
Method: (§2) B2 Post-Emergence Herbicidal Activity Seeds of a variety of test species were sown in standard soil in pots: Triticum aestivium (TRZAW), Avena fatua (AVEFA), Alopecurus myosuroides (ALOMY), Echinochloa crus-galli (ECHCG), Lolium perenne (LOLPE), Zea Mays (ZEAMX), Abutilon theophrasti (ABUTH), Amaranthus retroflexus (AMARE) and Setaria faberi (SETFA). After 8 days cultivation (post-emergence) under controlled conditions in a glasshouse (at 24/16° C., day/night; 14 hours light; 65% humidity), the plants were sprayed with an aqueous spray solution derived from the formulation of the technical active ingredient in acetone/water (50:50) solution containing 0.5% Tween 20 (polyoxyethelyene sorbitan monolaurate, CAS RN 9005-64-5). The test plants were then grown in a glasshouse under controlled conditions (at 24/16° C., day/night; 14 hours light; 65% humidity) and watered twice daily. After 13 days, the test was evaluated (5=total damage to plant; 0=no damage to plant). Tables B2a and B2b Control of Weed Species by Compound of Formula (I) after Post-Emergence Application

[8] = test system: Avena fatua (AVEFA); test: Post-emergence herbicidal activity (B2); conditions: Test B2a, 1000 g/ha, evaluated after 13 days, 5=total damage to plant, 0=no damage to plant
Method: as §2

[9] = test system: Echinochloa crus-galli (ECHCG); test: Post-emergence herbicidal activity (B2); conditions: 1000 g/ha, evaluated after 13 days, 5=total damage to plant, 0=no damage to plant
Method: as §2

[10] = test system: Lolium perenne (LOLPE); test: Post-emergence herbicidal activity (B2); conditions: 1000 g/ha, evaluated after 13 days, 5=total damage to plant, 0=no damage to plant
Method: as §2

[11] = test system: Setaria faberi (SETFA); test: Post-emergence herbicidal activity (B2); conditions: 1000 g/ha, evaluated after 13 days, 5=total damage to plant, 0=no damage to plant
Method: as §2

[12] = test system: Triticum aestivium (TRZAW); test: Post-emergence herbicidal activity (B2); conditions: Test B2a, 1000 g/ha, evaluated after 13 days, 5=total damage to plant, 0=no damage to plant
Method: as §2

[13] = test system: Abutilon theophrasti (ABUTH); test: Pre-emergence herbicidal activity (B1); conditions: Test 1b, 1000 g/ha, evaluated after 13 days, 5=total damage to plant, 0=no damage to plant
Method: as §1

[14] = test system: Amaranthus retroflexus (AMARE); test: Pre-emergence herbicidal activity (B1); conditions: Test 1b, 1000 g/ha, evaluated after 13 days, 5=total damage to plant, 0=no damage to plant
Method: as §1

[15] = test system: Zea Mays (ZEAMX); test: Pre-emergence herbicidal activity (B1); conditions: Test 1b, 1000 g/ha, evaluated after 13 days, 5=total damage to plant, 0=no damage to plant
Method: as §1

[16] = test system: Abutilon theophrasti (ABUTH); test: Post-emergence herbicidal activity (B2); conditions: Test B2b, 1000 g/ha, evaluated after 13 days, 5=total damage to plant, 0=no damage to plant
Method: as §2

[17] = test system: Amaranthus retroflexus (AMARE); test: Post-emergence herbicidal activity (B2); conditions: Test B2b, 1000 g/ha, evaluated after 13 days, 5=total damage to plant, 0=no damage to plant
Method: as §2

[18] = test system: Zea Mays (ZEAMX); test: Post-emergence herbicidal activity (B2); conditions: Test B2b, 1000 g/ha, evaluated after 13 days, 5=total damage to plant, 0=no damage to plant
Method: as §2

| Compound | ALOMY damage score [1] | AVEFA damage score [2] | ECHCG damage score ([3]; Test 1a) | LOLPE damage score ([4]; Test 1a) | SETFA damage score ([5]; Test 1a) | TRAZW damage score [6] | ALOMY damage score [7] | AVEFA damage score [8] | ECHCG damage score ([9]; Test B2a) | LOLPE damage score ([10]; Test B2a) | SETFA damage score ([11]; Test B2a) | TRAZW damage score [12] | ABUTH damage score [13] | AMARE damage score [14] | ECHCG damage score ([3]; Test 1b) | LOLPE damage score ([4]; Test 1b) | SETFA damage score ([5]; Test 1b) | ZEAMX damage score [15] | ABUTH damage score [16] | AMARE damage score [17] | other results |
| --- | --- | --- | --- | --- | --- | --- | --- | --- | --- | --- | --- | --- | --- | --- | --- | --- | --- | --- | --- | --- | --- |
| Fc1cncc(-c2ccc(NCc3nccs3)c(C(F)(F)F)n2)c1 [Compound A56] | 0 | 2 | 4 | 1 | 5 | 1 | 1 | 4 | 5 | 3 | 5 | 1 | – | – | – | – | – | – | – | – | – |
| CCCNc1ccc(-c2cncc(F)c2)nc1C(F)(F)F [Compound A47] | 0 | 1 | 3 | 1 | 4 | 0 | 0 | 2 | 4 | 2 | 5 | 2 | – | – | – | – | – | – | – | – | – |
| N#Cc1cncc(-c2ccc(N)c(C(F)(F)F)n2)c1 [Compound A2] | 0 | 0 | 2 | 1 | 4 | 0 | 1 | 3 | 4 | 2 | 5 | 0 | – | – | – | – | – | – | – | – | – |
| Fc1cncc(-c2ccc(N3CCOCC3)c(C(F)(F)F)n2)c1 [Compound A39, 4-[6-(5-fluoro-3-pyridyl)-2-(trifluoromethyl)-3-pyridyl]morpholine] | 0 | 0 | 3 | 0 | 3 | 0 | 0 | 2 | 4 | 2 | 4 | 0 | – | – | – | – | – | – | – | – | – |
| Fc1cncc(-c2ccc(NCc3cc4ccccn4n3)c(C(F)(F)F)n2)c1 [Compound A55] | 0 | 2 | 5 | 1 | 5 | 0 | 1 | 4 | 5 | 3 | 5 | 2 | – | – | – | – | – | – | – | – | – |
| Fc1cncc(-c2ccc(N3CCC3)c(C(F)(F)F)n2)c1 [Compound A63] | 0 | 0 | 2 | 0 | 5 | 0 | 0 | 3 | 3 | 2 | 5 | 0 | – | – | – | – | – | – | – | – | – |
| Cn1ccc(CNc2ccc(-c3cncc(F)c3)nc2C(F)(F)F)n1 [Compound A59] | 0 | 3 | 4 | 1 | 5 | 0 | 1 | 3 | 5 | 3 | 5 | 2 | – | – | – | – | – | – | – | – | – |
| CNc1ccc(-c2cncc(C#N)c2)nc1C(F)(F)F [Compound A1] | 0 | 1 | 1 | 1 | 4 | 0 | 0 | 3 | 3 | 2 | 5 | 2 | – | – | – | – | – | – | – | – | – |
| N#Cc1nc(-c2cncc(F)c2)ccc1N [Compound A9, 3-amino-6-(5-fluoro-3-pyridyl)pyridine-2-carbonitrile] | – | – | – | – | – | – | – | – | – | – | – | – | 1 | 1 | 4 | 0 | 4 | 2 | 1 | 1 | ECHCG damage score ([9]; Test B2b): 4; LOLPE damage score ([10]; Test B2b): 1; SETFA damage score ([11]; Test B2b): 4; ZEAMX damage score [18]: 4 |
| Cc1nc(-c2cncnc2)ccc1N [Compound A14] | – | – | – | – | – | – | – | – | – | – | – | – | 0 | 0 | 1 | 1 | 2 | 1 | 0 | 2 | ECHCG damage score ([9]; Test B2b): 2; LOLPE damage score ([10]; Test B2b): 1; SETFA damage score ([11]; Test B2b): 3; ZEAMX damage score [18]: 2 |
| Fc1cncc(-c2ccc(NCc3ccccc3)c(C(F)(F)F)n2)c1 [Compound A21] | – | – | – | – | – | – | – | – | – | – | – | – | 0 | 1 | 3 | 2 | 5 | 3 | 0 | 1 | ECHCG damage score ([9]; Test B2b): 1; LOLPE damage score ([10]; Test B2b): 1; SETFA damage score ([11]; Test B2b): 5; ZEAMX damage score [18]: 5 |
| Fc1cncc(-c2ccc(NC3CCCCC3)c(C(F)(F)F)n2)c1 [Compound A45] | 0 | 1 | 3 | 0 | 4 | – | 0 | 2 | 2 | 1 | 4 | 0 | – | – | – | – | – | – | – | – | – |
| Nc1ccc(-c2cncc(F)c2)nc1C(F)(F)F [Compound A33, 6-(5-fluoro-3-pyridyl)-2-(trifluoromethyl)pyridin-3-amine] | – | – | – | – | – | – | – | – | – | – | – | – | 0 | 1 | 2 | 2 | 4 | 4 | 1 | 2 | ECHCG damage score ([9]; Test B2b): 3; LOLPE damage score ([10]; Test B2b): 3; SETFA damage score ([11]; Test B2b): 5; ZEAMX damage score [18]: 5 |
| CNc1ccc(-c2cncnc2)nc1C(F)(F)F [Compound A34] | – | – | – | – | – | – | – | – | – | – | – | – | 0 | 1 | 4 | 3 | 4 | 4 | 1 | 2 | ECHCG damage score ([9]; Test B2b): 5; LOLPE damage score ([10]; Test B2b): 3; SETFA damage score ([11]; Test B2b): 5; ZEAMX damage score [18]: 5 |
| COC(=O)C(C)Nc1ccc(-c2cncc(F)c2)nc1C(F)(F)F (centres unmarked) [Compound A19] | – | – | – | – | – | – | – | – | – | – | – | – | 0 | 1 | 3 | 2 | 4 | 5 | 1 | 2 | ECHCG damage score ([9]; Test B2b): 4; LOLPE damage score ([10]; Test B2b): 3; SETFA damage score ([11]; Test B2b): 5; ZEAMX damage score [18]: 5 |
